Consider one molecule from PMC9238271, “The quorum sensing peptide EntF* promotes colorectal cancer metastasis in mice: a new factor in the host-microbiome interaction” (BMC Biology, 2022).

Data set [1] is described as follows: EntF* in serum of untreated mice, RP-UPLC-TQ-MS (LC1-MS1). The format is in vivo, C57BL/6 mice. Particulars: for EntF* concentration (pM) LC1-MS1: mouse serum, LOQ = 100 pM, below: set at 0. As to the method: After a 30 min incubation on ice, blood was centrifuged at 1000g for 10 min at room temperature. The supernatant (serum) was then transferred to fresh tubes and stored at − 35 °C until use.
(§1) Fifty microliters of serum were mixed with 150 μL 0.5% formic acid in acetonitrile. After sonication for 5 min, samples were vortexed for 5 s, then heated for 30 s at 100 °C. The solution was vortexed and centrifuged for 20 min at 20,000g at 4 °C. The supernatant was purified using solid phase extraction (SPE) on HyperSep C18 plates (Thermo Fisher Scientific, Belgium), previously conditioned with acetonitrile and equilibrated with 75% acetonitrile in water, containing 0.375% formic acid. After loading 150 μL of each sample, 120 μL eluent were collected and organic solvents evaporated using nitrogen (1 L/min) for 5 min. The resulting samples were further diluted with 30 μL of BSA-based anti-adsorption solution, and analyzed by LC-MS.
(§2) EntF* was detected and quantified on a Waters Acquity® UPLC H-class system, connected to a Waters Xevo™ TQ-S triple quadrupole mass spectrometer with electrospray ionization (operated in positive ionization mode). Autosampler tray and column oven were kept at 10 ± 5 °C and 60 ± 5 °C, respectively. Chromatographic separation was achieved on a Waters Acquity® UPLC BEH Peptide C18 column (300 Å, 1.7 μm, 2.1 mm × 100 mm). The mobile phases consisted of 93/2/5 water/acetonitrile/DMSO (V/V/V) containing 0.1% formic acid (mobile phase A) and 2/93/5 water/acetonitrile/DMSO (V/V/V) containing 0.1% formic acid (mobile phase B), and the flow rate was set to 0.5 mL/min. A 10-μL aliquot from each sample was injected. The gradient program started with 80% of mobile phase A for 1 min, followed by a linear gradient to 40% of mobile phase A for 3.5 min. Gradient was then changed to 14.2% mobile phase A at 5 min, followed by a 1 min equilibration, before starting conditions were applied. EntF* retention time was between 4.25 and 4.45 min.
An optimized capillary voltage of 3.00 kV, a cone voltage of 20.00 V, and a source offset of 50.0 V were used. Acquisition was done in the MRM mode. The selected precursor ion for EntF* was m/z 865.7 with two selected product ions at m/z 202.08 (36 eV, b2 fragment) as quantifier and m/z 315.17 (31 eV, b3 fragment) as qualifier.
A sample was considered positive for the presence of EntF* when the following criteria were met: correct retention time, quantifier/qualifier peak area ratio between 2.0 and 4.0, both quantifier and qualifier peaks with a signal-to-noise ratio > 3.0, and a peptide concentration > 100 pM.

Data set [2] can be described thus: EntF production in germ-free mice: EntF* in colon content and serum. It is filed as in vivo, germ-free female C57BL6 mice. As to the method:
as §1
For EntF and EntF* colon content analysis, 50 mg of colon content were suspended in 100 μL of a 2% hydrochloric acid solution, vortexed and sonicated for 30 s. The suspension was centrifuged for 1 min at 3000g, and 50 μL of the supernatant was heated at 100 °C for 1 min and cooled on ice for 1 min. Samples were centrifuged again for 1 min at 10,000g, and 30 μL of supernatant was added to a 900 μL of a 3% DMSO solution in acetonitrile acidified with 0.1% formic acid (equilibration solution). Nine hundred microliters of the diluted samples was loaded on a HILIC amide SPE MonoSpin column previously conditioned with acetonitrile and equilibrated with the equilibration solution. Samples were eluted using a mixture of 75/20/5 (V/V/V) H2O/acetonitrile/DMSO acidified with 0.1% formic acid.
as §2
Mice were obtained from the Ghent Germfree and Gnotobiotic mouse facility (LA1400637), maintained in a sterile environment under controlled conditions (light–dark cycle with light from 7:00 h to 17:00 h, temperature 21–25 °C, and humidity 45–65%). Twelve germ-free female C57BL6 mice were divided into 3 groups and each group (n = 4) was kept in a separate cage. At day 0, the placebo group was treated with the cell medium (BHI), the control group received a mixture of 3 EntF-negative E. faecium strains (NCIMB 10415; W54 and LMG S-28935 each 10^8 CFU per strain) suspended in 300 μL of BHI, while the test group received a mixture of 3 EntF-producing E. faecium strains (LMG 23236; T-110 and ATCC 8459 each 10^8 CFU/strain) suspended in 300 μL of BHI. […] Serum samples were stored at − 80 °C and subsequently analyzed for the presence of EntF* using LC1-MS1. […] Samples were further analyzed for the presence of EntF* using LC1-MS1.

Take `CC(C)C[C@@H]1NC(=O)[C@H](CO)NC(=O)[C@H](Cc2ccccc2)NC(=O)[C@H](C(C)C)NC(=O)[C@@H](NC(=O)[C@H](CCC(=O)O)NC(=O)[C@@H](NC(=O)[C@H](CC(C)C)NC(=O)[C@H](CC(N)=O)NC(=O)[C@@H](N)CO)C(C)C)CSSC[C@@H](C(=O)N[C@@H](CC(N)=O)C(=O)O)NC(=O)[C@H](CCCCN)NC(=O)[C@H](CCCCN)NC(=O)[C@H](Cc2ccccc2)NC1=O` (single isomer, unassigned) [EntF*]: the “in vivo exposure, average” value in data set [1] (All mice average (<LoD => 0)) is listed as 0.019 nM. Further, the “in vivo exposure, Exposure” value in data set [1] (All mice average (<LoD => 0), time 1440 min) was found to be 27.5 nM·min. Moreover, the “Concentration (pM), average” value in data set [1] (Natural in vivo exposure, average of all samples, < LOD: set at 0 pM) was 19.1243 pM. The “Concentration (pM)” value in data set [1] (Natural in vivo exposure, sample 10809_069_205) is 107.331 pM; in data set [1] (Natural in vivo exposure, sample 10809_069_269), 431.362 pM; in data set [1] (Natural in vivo exposure, sample 10809_069_276), 567.385 pM; in data set [1] (Natural in vivo exposure, sample 10809_069_296), 136.998 pM. The “EntF* concentration in mouse serum, Average (pM), All” value in data set [1] (all samples (n=35), samples < LOQ counted as zero) was 328.6 pM. The “amount of EntF* detected in the serum of positive mice” value in data set [1] (endogenous level, six of 35 untreated C57BL/6 mice, LOQ 100 pM, LC1-MS1) is on record as “above 100 pM”. The “EntF* concentration (pM) LC1-MS1” value in data set [1] (sample 20181011S4) is listed as 389 pM; in data set [1] (sample 20181011S7) it was 2146 pM; in data set [1] (sample 20181011S9) it was 3127 pM; in data set [1] (sample 20181011S12) it was 2489 pM; in data set [1] (sample 20181011S16), 3148 pM; in data set [1] (sample 20181011S18), 200 pM. Moreover, the tissue level at time molar at 96 h in data set [2] (female, C57BL6, mouse, colon content, germ-free mice four days after oral gavage of 3 EntF-producing E. faecium strains (10^8 CFU/strain), LoD 1.9 pmol/g, LC1-MS1, mean ± SEM, n = 4, read-out: EntF* concentration in colon content) amounted to 0.01 ± 0.0032 nmol/g. Besides, in data set [2] (germ-free mice four days after oral gavage of EntF-producing E. faecium strains, LC1-MS1), the “EntF* in serum of the test group” value was “detected”. In addition, the “EntF* in feces, Tot. Av.” value in data set [2] (gnotobiotic mice, feces, mean of 4 test mice) turned out to be 9.726 pmol/g. Besides, the “EntF* serum concentration, Maximum Likelihood Function estimate ^µ” value in data set [2] (gnotobiotic mice, serum, 4 test mice, censored at yL 80 pM) is 90.7384 pM. In addition, in data set [2] (gnotobiotic mice, serum, average of the 3 test mice above LoD), the “EntF* serum concentration, average” value is 97.3333 pM.
